In publication PMC6349854, “GLUT1 and GLUT3 involvement in anthocyanin gastric transport- Nanobased targeted approach” (Scientific Reports, 2019):

What was measured:
[1] = test system: MKN-28 cells; test: Transepithelial transport of anthocyanins through MKN-28 gastric barrier (apical to basolateral); format: in vitro ADME, human; settings: for paracellular transport efficiency: 4 °C; for paracellular transport efficiency / transport efficiency at 180 minutes: apical pH 5.0, basolateral pH 7.4, anthocyanin 500 µM; for transport efficiency at 180 minutes: 37 °C
Experimental: (§1) Transepithelial transport experiments were performed using a similar procedure from the one described elsewhere. […] Cells were cultured at 37 °C in an atmosphere of 5% CO2 and the medium was changed every two days.
(§2) After this treatment, media was removed and cells were washed with Hanks’ medium (HBSS), pH 7.4 at the basolateral side and with HBSS pH 5.0 at the apical side. Anthocyanin solution (500 µM) in HBSS pH 5.0 was added to the apical side of the cells and HBSS containing 2% fetal bovine serum free of polyphenols was added to the basolateral compartment. Transepithelial transport was followed as a function of time, at 4 °C and 37 °C. Samples were taken from the basolateral side and replaced by fresh medium. The samples (150 µL) were acidified with HCl 6 M to a final concentration of 1% and frozen at −18 °C until HPLC analysis.

[2] = test system: Mv3glc transport through MKN-28 barrier; test: Effect of transporter inhibitors on anthocyanin transport through MKN-28 barrier; format: cell-based, human
Experimental: as §1, §2

Row | SMILES | paracellular transport efficiency [1] | transport efficiency at 180 minutes ([1]; 180 min) | other results
1 | COc1cc(-c2[o+]c3cc(O)cc(O)c3cc2O[C@@H]2O[C@H](CO)[C@@H](O)[C@H](O)[C@H]2O)cc(OC)c1O [Mv3glc, Malvidin-3-O-glucoside] | below 2% | ~ 10% | inhibitory effect on transport when both transporters inhibited simultaneously ([1]; GLUT1 and GLUT3 silenced together (AuNP@GLUT1 + 3), 24 h + 24 h): much more pronounced and additive; relative reduction of transport ([1]; after silencing of GLUT1 or GLUT3 by nanoconjugates 24 h + 24 h, 180 min, versus respective control (AuNP@PEG)): around 25%
2 | COc1cc(-c2[o+]c3cc(O)cc(O)c3cc2O[C@@H]2O[C@H](CO)[C@@H](O)[C@H](O)[C@H]2O)ccc1O [Pn3glc, Peonidin-3-O-glucoside] | below 2% | ~ 10% | –
3 | CCCN(CCC)S(=O)(=O)c1ccc(C(=O)O)cc1 [Probenecid] | – | – | effect on Mv3glc transport ([2]; inhibitor 50 µM, apical pH 5.0, basolateral pH 7.4): no effect
4 | C=C1[C@@H](C)[C@H]2[C@H](Cc3ccccc3)NC(=O)[C@]23OC(=O)/C=C/[C@H](O)CCC[C@@H](C)C/C=C/[C@H]3[C@@H]1O [cytochalasin B] | – | – | inhibitory effect on anthocyanin transport ([2]; cytochalasin B 50 µM added simultaneously with AuNP@GLUT1 + 3): inhibitory effect was higher
